Read-outs that look alike come from different tables or passages of the source.
Assays:
[1] = system: human embryonic kidney (HEK 293) cell lines; assay: MTT cytotoxicity assay; type: cell-based; conditions: Homo sapiens, HEK293; HEK 293, MTT, 24 h
Experimental: Compounds 2h and 2i were also evaluated in vitro for their cytotoxic potential against human embryonic kidney (HEK 293) cell lines using the MTT assay.
The cytotoxicity of compounds 2h and 2i was analyzed in vitro by the MTT colorimetric assay on human embryonic kidney cell lines (HEK 293). HEK cell lines were cultured in DMEM supplemented with 10% fetal calf serum and 1% antibiotic-antimycotic mixture culture plates at 37 °C and 5% CO2-humidified incubator. Cells were seeded at a density of 1 × 10^5 cells/well in 96-well plate for 24 h; then, cells were washed and incubated in fresh medium. Compounds 2h and 2i were added at a concentration of 1, 5, 10, 25, and 50 μg/mL to triplicate wells and kept for 24 h, after which cells were washed three times with PBS. After washing, 20 μL of MTT solution (5 mg/mL stock solution) were added to each well, and cells were then incubated for an additional 4 h. The unreacted MTT dye and medium were aspirated off, and 100 μL of DMSO was added to each well to ensure solubilization of formazan crystals. The contents of the plates were mixed for 15 min to achieve complete solubilization of the formazan crystals, and the measurement of optical density was carried out at 570 nm with a micro plate spectrophotometer (MRX Microplate Reader, Dynatech Laboratories Inc., Chantilly, VA, USA) at 570 nm.

NCI-H226 = type: cell-based; conditions: NCI-H226, NSCLC
COLO 205 = type: cell-based; conditions: COLO 205, Colon cancer
SNB-19 = type: cell-based; conditions: SNB-19, CNS Cancer
[2] = system: NSCLC (Non-small Cell Lung Cancer) cell lines; conditions: for GI50 / CC50: Homo sapiens
Colon cancer cell lines = conditions: for GI50 / CC50: Homo sapiens
CNS Cancer cell lines = conditions: for GI50 / CC50: Homo sapiens
[3] = Homo sapiens, read-out: LC50 (the source's name)
[4] = read-out: GI50, values range inside panel
[5] = read-out: LC50, values range inside panel

Compound `O=C(COc1ccc(Cl)cc1/C=c1\sc2ncnn2c1=O)Nc1ccc(Cl)cc1` [Compound 2h, (Z)-2-(4-Chloro-2-((6-oxothiazolo[3,2-b][1,2,4]triazol-5(6H)-ylidene)methyl)phenoxy)-N-(4-chlorophenyl)acetamide] has an IC50 [1] of 29 µM, a GI50 (NCI-H226; Homo sapiens) of 3.09 µM and an LC50 (50% lethal concentration) (NCI-H226; Homo sapiens) of 44.7 µM. The TGI (NCI-H226) was 17.37 µM, the TGI (COLO 205) was 19.95 µM and the GI50 (COLO 205; Homo sapiens) was 7.58 µM. It also gave a CC50 (COLO 205; [3]) of 44.7 µM, a GI50 (SNB-19; Homo sapiens) of 3.8 µM and a CC50 (SNB-19; [3]) of 38 µM. It also gave a TGI (SNB-19) of 14.45 µM, a GI50 (MOLT-4; Homo sapiens, MOLT-4) of 1.9 µM and a CC50 (MOLT-4; Homo sapiens, MOLT-4, read-out: LC50) of 22.9 µM. The TGI (MOLT-4; MOLT-4, Leukemia) was 5.01 µM, the TGI (HOP-92; HOP-92, NSCLC) was 11.74 µM and the GI50 (HOP-92; Homo sapiens, HOP-92) was 2.29 µM. For the same compound, the CC50 (HOP-92; Homo sapiens, HOP-92, read-out: LC50) was 34.7 µM, the GI50 (NCI-H460; Homo sapiens, NCI-H460) was 11.5 µM and the CC50 (NCI-H460; Homo sapiens, NCI-H460, read-out: LC50) was 49 µM. It also gave a TGI (NCI-H460; NCI-H460, NSCLC) of 23.44 µM, a GI50 (NCI-H522; Homo sapiens, NCI-H522) of 3.16 µM and a CC50 (NCI-H522; Homo sapiens, NCI-H522, read-out: LC50) of 38 µM. It also gave a TGI (NCI-H522; NCI-H522, NSCLC) of 9.99 µM, a TGI (HCC-2998; HCC-2998, Colon cancer) of 18.62 µM and a GI50 (HCC-2998; Homo sapiens, HCC 2998) of 7.07 µM. It also gave a CC50 (HCC-2998; Homo sapiens, HCC 2998, read-out: LC50) of 43.6 µM, a TGI (HCT-15; HCT-15, Colon cancer) of 21.37 µM and a GI50 (HCT-15; Homo sapiens, HCT-15) of 9.33 µM. The CC50 (HCT-15; Homo sapiens, HCT-15, read-out: LC50) was 45.7 µM, the GI50 (SF-268; Homo sapiens, SF-268) was 2.39 µM and the CC50 (SF-268; Homo sapiens, SF-268, read-out: LC50) was 37.1 µM. For the same compound, the TGI (SF-268; SF-268, CNS Cancer) was 10.47 µM, the GI50 (MALME-3M; Homo sapiens, Malme-3M) was 7.94 µM and the CC50 (MALME-3M; Homo sapiens, Malme-3M, read-out: LC50) was 45.7 µM. For the same compound, the TGI (MALME-3M; MALME-3M, Melanoma) was 20.89 µM, the GI50 (SK-MEL-28; Homo sapiens, SK-MEL-28) was 6.16 µM and the CC50 (SK-MEL-28; Homo sapiens, SK-MEL-28, read-out: LC50) was 51.3 µM. The TGI (SK-MEL-28; SK-MEL-28, Melanoma) was 20.41 µM, the GI50 (SK-MEL-5; Homo sapiens, SK-MEL-5) was 3.23 µM and the CC50 (SK-MEL-5; Homo sapiens, SK-MEL-5, read-out: LC50) was 38 µM. The TGI (SK-MEL-5; SK-MEL-5, Melanoma) was 14.79 µM, the GI50 (UACC-257; Homo sapiens, UACC-257) was 3.38 µM and the CC50 (UACC-257; Homo sapiens, UACC-257, read-out: LC50) was 38.9 µM. For the same compound, the TGI (UACC-257; UACC-257, Melanoma) was 15.13 µM, the GI50 (UACC-62; Homo sapiens, UACC-62) was 2.69 µM and the CC50 (UACC-62; Homo sapiens, UACC-62, read-out: LC50) was 38 µM. The TGI (UACC-62; UACC-62, Melanoma) was 14.79 µM, the TGI (A498; A498, Renal Cancer) was 22.38 µM and the GI50 (A498; Homo sapiens, A498) was 10.5 µM. The CC50 (A498; Homo sapiens, A498, read-out: LC50) was 46.8 µM, the GI50 (RXF 393; Homo sapiens, RXF 393) was 1.9 µM and the CC50 (RXF 393; Homo sapiens, RXF 393, read-out: LC50) was 36.3 µM. It also gave a TGI (RXF 393; RXF 393, Renal Cancer) of 8.51 µM, a GI50 (PC-3; Homo sapiens, PC-3) of 3.8 µM and a CC50 (PC-3; Homo sapiens, PC-3, read-out: LC50) of 45.7 µM. The TGI (PC-3; PC-3, Prostate Cancer) was 16.21 µM, the GI50 (MCF7; Homo sapiens, MCF7) was 0.79 µM and the CC50 (MCF7; Homo sapiens, MCF7, read-out: LC50) was 19.5 µM. The TGI (MCF7; MCF7, Breast Cancer) was 4.07 µM, the GI50 (MDA-MB-435; Homo sapiens, MDA-MB-435) was 2.95 µM and the CC50 (MDA-MB-435; Homo sapiens, MDA-MB-435, read-out: LC50) was 28.8 µM. For the same compound, the TGI (MDA-MB-435; MDA-MB-435, Breast Cancer) was 12.58 µM, the GI50 ([2]; read-out: GI50, panel MG_MID) was 6.98 µM and the GI50 [2, 4] was 2.29 to 15.5 µM. For the same compound, the CC50 ([2]; read-out: LC50, panel MG_MID) was 44 µM, the CC50 [2, 5] was 31.6 to 60.2 µM and the “TGI, panel MG_MID” value ([2]; NSCLC subpanel) was 18.22 µM. The “TGI, values range inside panel” value ([2]; NSCLC subpanel) was 9.99 to 30.90 µM, the “TGI, panel MG_MID” value (Colon cancer cell lines; Colon cancer subpanel) was 17.39 µM and the “TGI, values range inside panel” value (Colon cancer cell lines; Colon cancer subpanel) was 10.96 to 21.37 µM. For the same compound, the GI50 (Colon cancer cell lines; read-out: GI50, panel MG_MID) was 6.13 µM, the GI50 (Colon cancer cell lines; [4]) was 2.45 to 9.33 µM and the CC50 (Colon cancer cell lines; read-out: LC50, panel MG_MID) was 41.4 µM. The CC50 (Colon cancer cell lines; [5]) was 33.1 to 45.7 µM, the “TGI, panel MG_MID” value (CNS Cancer cell lines; CNS Cancer subpanel) was 10.76 µM and the “TGI, values range inside panel” value (CNS Cancer cell lines; CNS Cancer subpanel) was 4.46 to 15.48 µM. It also gave a GI50 (CNS Cancer cell lines; read-out: GI50, panel MG_MID) of 2.87 µM, a GI50 (CNS Cancer cell lines; [4]) of 1.77 to 4.07 µM and a CC50 (CNS Cancer cell lines; read-out: LC50, panel MG_MID) of 38.6 µM. The CC50 (CNS Cancer cell lines; [5]) was 12.6 to 87.1 µM, the “TGI, panel MG_MID” value (Breast Cancer cell lines; Breast Cancer subpanel) was 15.61 µM and the “TGI, values range inside panel” value (Breast Cancer cell lines; Breast Cancer subpanel) was 4.07 to 41.68 µM. It also gave a GI50 (Breast Cancer cell lines; Homo sapiens, read-out: GI50, panel MG_MID) of 4.48 µM, a CC50 (Breast Cancer cell lines; Homo sapiens, read-out: LC50, panel MG_MID) of 46.1 µM and a GI50 (Breast Cancer cell lines; read-out: GI50, values range inside panel, Breast Cancer subpanel) of 0.01 to 15.5 µM.

Source: publication PMC7926352, “Synthesis, Characterization and In Vitro Evaluation of Novel 5-Ene-thiazolo[3,2-b][1,2,4]triazole-6(5H)-ones as Possible Anticancer Agents” (Molecules, 2021)
